Consider 2 compounds from patent publication US3954793A, “1-(2-Propynyl)-1 H-indazole compounds” (priority 1973, dated 1976).

One data set concerns male mice. The data set can be described thus: extension of sleeping time of depressant drugs by synergists. Type of data set: in vivo, male mice (Swiss albino white). To be noted: for Mean Sleeping Time, Noludar / Relative Sleeping Time, Noludar: Noludar 110 mg/kg; for Relative Sleeping Time, Noludar / Relative Sleeping Time, Secobarbital: treated/control; for Mean Sleeping Time, Secobarbital / Relative Sleeping Time, Secobarbital: Secobarbital 37 mg/kg. The method in brief:
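Swiss albino male mice (~38 days, 25-30 g) given synergist at 74.0 or 110.0 mg/kg in corn oil 1 h before Secobarbital 37.0 mg/kg or Noludar 110.0 mg/kg in water. Sleeping time measured from drug dosing to righting-reflex recovery; relative sleeping time = treated ÷ drug-only control.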

Data set [1] concerns Rutgers A strain house flies. The data set can be described thus: topical application, percent kill after 24 hours, resistant Rutgers A strain. The format is in vivo, female). The method in brief:
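Synergist plus mobam, Diazinon or GS 13005 dissolved in acetone, applied as 1.0 μl to the thorax of CO2-anaesthetised 3-to-5 day old female Rutgers A (resistant) house flies; doses in μg/fly. Flies held 10 per dish, 3-5 dishes per treatment, with skim milk; mortality scored at 24 h.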

The subject of data set [2] is Swiss albino, white male mice. Description: acute toxicity and synergism of acute toxicity in mice. The format is in vivo. The following applies: 48 hours, eight mice. The method in brief: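 Male Swiss albino mice (23 to 27 g, five to six weeks), eight per dose, dosed intraperitoneally in corn oil: dimetilan alone at 4 to 32 mg per kg, synergists alone at 1000 mg/kg with deaths counted at 72 hours. For synergism, synergist given 1 hour before insecticide, lethality observed for at least 6 hours.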

[3] abbreviates: synergist 110 mg/kg one hour prior.
The mark [4] stands for this setting: synergist 74 mg/kg one hour prior.
The mark [5] stands for this setting: Dimetilan 8 + synergist 80 mg/kg i.p.
The mark [6] stands for this setting: Dimetilan 8 + synergist 240 mg/kg i.p.

For `C#CCOC(c1ccc(Cl)cc1)C(C)[N+](=O)[O-]` (stereo not shown) [IV-C], the “Mean Sleeping Time, Noludar” value in the data set on male mice (setting [3]) came to 74 min. Besides, the “Relative Sleeping Time, Noludar” value with male mice (synergist 110 mg/kg) is recorded as 2.5. Moreover, the “Mean Sleeping Time, Secobarbital” value in the data set with male mice (setting [4]) is 112 min. In addition, the “Relative Sleeping Time, Secobarbital” value in the data set with male mice (synergist 74 mg/kg) is 4.7. Also, in data set [1] (Diazinon 3.0 + synergist 3.0 μg/fly), the “percent kill after 24 hours, with Diazinon” value worked out at 19%. In data set [1] (GS 13005 1.0 + synergist 5.0 μg/fly), the “percent kill after 24 hours, with GS 13005” value is on record as 95%. The “percent kill after 24 hours, synergist alone” value in data set [1] (insecticide 0, synergist 5.0 μg/fly) was 0%. Also, the “number of mice dead, with Dimetilan” value in data set [2] (setting [5]) is given as 5; in data set [2] (setting [6]), 7.
For `C#CCON=C(C)c1ccc(Cl)cc1` [I-D], the “Mean Sleeping Time, Noludar” value with male mice (setting [3]) was 58 min. Further, in the data set with male mice (synergist 110 mg/kg), the “Relative Sleeping Time, Noludar” value came out at 1.5. Moreover, the “Mean Sleeping Time, Secobarbital” value with male mice (setting [4]) was 62 min; in the data set on male mice (setting [3]), 56 min. Further, the “Relative Sleeping Time, Secobarbital” value with male mice (synergist 74 mg/kg) was found to be 1.9; in the data set with male mice (synergist 110 mg/kg), 1.7. In data set [1] (Diazinon 1.5 + synergist 7.5 μg/fly), the “percent kill after 24 hours, with Diazinon” value was found to be 69%. Further, the “percent kill after 24 hours, with Mobam” value amounted to 19% in data set [1] (Mobam 0.15 + synergist 0.75 μg/fly), 95% in data set [1] (Mobam 0.30 + synergist 1.5 μg/fly) and 100% in data set [1] (Mobam 0.60 + synergist 3.0 μg/fly). Further, the “percent kill after 24 hours, synergist alone” value in data set [1] (insecticide 0, synergist 7.5 μg/fly) was determined as 0%. Besides, the “number of mice dead, with Dimetilan” value in data set [2] (setting [5]) is listed as 1; in data set [2] (setting [6]), 6.
